Measured values taken from patent US20250163013A1, “TREATMENT OF GENITOURINARY SYNDROME OF MENOPAUSE” (THE REGENTS OF THE UNIVERSITY OF COLORADO, a body corporate, priority 2022, published 2025).
Entries after “also recorded” stand apart in the source; their conditions may differ. Each block holds one molecule with its values, some of them ahead of it.

Assays:
[1] = test system: ovariectomized rat; assay: Ki67 immunohistochemistry of vaginal sections, ovariectomized rat; type: in vivo; settings: high compound 4, 1.0 mg/suppository daily for 14 days
Experimental: Compound 4 of Table 1 was tested in the ovariectomized rat, a model of GSM, (Yousefzadeh N, et al., Ovariectomized rat model of osteoporosis: a practical guide. EXCLI J. 2020 Jan. 10; 19:89-107. doi: 10.17179/excli2019-1990). Six rats were tested in each of five treatment groups: rats treated with low or high concentrations of control (vehicle only); rats treated with low (0.2 mg/suppository or high (1.0 mg/suppository levels of compound 4 (abbreviated as “3F” in these figures); and rats treated with estradiol 0.1 microgram/suppository. Suppositories were administered intravaginally daily for 14 days. There were two sets of vehicle controls, corresponding to the level of excipients used in the in the low and high compound 4 treatment conditions. The estradiol treatment condition had excipients equivalent to the high control and high compound 4 treatment conditions. […] To determine the depth of the epithelium, high quality 100x images were taken of the two regions and thickness of the epithelium measured at 25 distinct sites at each level for each animal, then averaged. […] P values were determined by student's T-test. […]
Ki-67 is a protein expressed in G1, S, G2, and M phase and has been established as a marker of cellular proliferation. […] Approximately 800 cells were assessed on each slide. […] P values were determined by student's T-test.

[2] = test system: ovariectomized rat; assay: Depth of vaginal epithelium in ovariectomized rat model of GSM; type: in vivo
Experimental: Independent measurement from mid-vagina (sections 3-4) and vagina near the cervix (sections 6-7) are shown. Twenty-five separate measurements were performed on sections 3-4 and also on sections 6-7 for each animal. There were 6 animals per treatment group, therefore each bar represents the mean of 150 measurements with the vertical line indicating one standard deviation.
(§1) Compound 4 of Table 1 was tested in the ovariectomized rat, a model of GSM, (Yousefzadeh N, et al., Ovariectomized rat model of osteoporosis: a practical guide. EXCLI J. 2020 Jan. 10; 19:89-107. doi: 10.17179/excli2019-1990). […] To determine the depth of the epithelium, high quality 100x images were taken of the two regions and thickness of the epithelium measured at 25 distinct sites at each level for each animal, then averaged. […] P values were determined by student's T-test. […]

[3] = test system: ovariectomized rat; assay: Behavior, appearance, weight and necropsy findings of treated rats; type: in vivo; settings: intravaginal suppository daily for 14 days
Experimental: (§2) Compound 4 of Table 1 was tested in the ovariectomized rat, a model of GSM, (Yousefzadeh N, et al., Ovariectomized rat model of osteoporosis: a practical guide. EXCLI J. 2020 Jan. 10; 19:89-107. doi: 10.17179/excli2019-1990). Six rats were tested in each of five treatment groups: rats treated with low or high concentrations of control (vehicle only); rats treated with low (0.2 mg/suppository or high (1.0 mg/suppository levels of compound 4 (abbreviated as “3F” in these figures); and rats treated with estradiol 0.1 microgram/suppository. Suppositories were administered intravaginally daily for 14 days. There were two sets of vehicle controls, corresponding to the level of excipients used in the in the low and high compound 4 treatment conditions. The estradiol treatment condition had excipients equivalent to the high control and high compound 4 treatment conditions. The individuals performing the drug treatment of the animals, their gross evaluations, sacrifice and dissection were blinded to the treatment that each group received. […] J Steroid Biochem Mol Biol. 2008 March; 109(1-2):67-80 doi: 10.1016/j.jsbmb.2007.09.023). […] To determine the depth of the epithelium, high quality 100x images were taken of the two regions and thickness of the epithelium measured at 25 distinct sites at each level for each animal, then averaged. […] P values were determined by student's T-test. […]

[4] = test system: ovariectomized rat; assay: Vaginal mucin 5B immunohistochemistry, semi-quantitative score, ovariectomized rat; type: in vivo; settings: intravaginal suppository daily for 14 days
Experimental: as §1
To investigate compound 4-mediated production of mucins in more detail, we investigated the production and presence of mucin 5B in the rat vagina. […] A semi-quantitative scoring system for the mucin 5B immunohistochemistry was designed with values between 0 to 2 in increments of 0.5 for the quantity of mucin 5B and the depth of the epithelium positive for mucin 5B, and then assessed at the levels 1, 2&3, 4&5, and 6&7. The presence of mucin 5B in the vaginal lumen was also assessed, then all values were summed for each animal. […] P values were determined by student's T-tests.

[5] = test system: Estrogen Response Element (ERE)-luciferase reporter gene; assay: Cell culture-reporter gene assay of estrogenic activity (T47D ERE-luciferase); type: cell-based; settings: for EC50: Homo sapiens, T47D breast cancer cell line, ERE-luciferase, treated 20 hours, FIG. 4; for estrogenic activity (luciferase) in words: compared to estradiol 1 nM
Experimental: Estrogenic activity was compared to an optimal dose of estradiol (1 nM). Results from cell culture-reporter gene assay was performed in which a T47D breast cancer cell line with a stably integrated Estrogen Response Element (ERE)-luciferase reporter gene was treated for 20 hours with the indicated doses of test compounds (FIG. 4). Luciferase activity was compared to an optimal dose of estradiol (1 nM).

[6] = Level in systemic circulation after suppository regimen; type: in vivo; settings: female, rat, other: intravaginal suppository, one day after a two-week, daily suppository administration regimen, read-out: level in the systemic circulation (undetectable, LOD)
Experimental: as §2

[7] = test system: ovariectomized rat; assay: Thickness of uterine endometrium, myometrium and bladder urothelium, ovariectomized rat; type: in vivo; settings: estradiol 0.1 microgram/suppository daily for 14 days
Experimental: as §1
To ascertain whether compound 4 has an effect on the epithelium of anatomically neighboring tissues, the thickness of the epithelium was assessed in the uterus (a known target tissue of physiological levels of estradiol) and bladder (not an estrogen target tissue). The rats from the five treatment groups in the ovariectomized rat model of GSM described in Example 2 were evaluated for the effects of compound 4 on growth of uterus and bladder. […] The endometrium, myometrium, and urothelium thickness of each animal (n=6) were measured in 20 locations and averaged. […] P values were determined by student T-test.

[8] = test system: ovariectomized rat; assay: Ki67 immunohistochemistry of uterine sections, ovariectomized rat; type: in vivo; settings: estradiol 0.1 microgram/suppository daily for 14 days
Experimental: as §1
Ki67 IHC was performed on a uterine section from animals in the control, the high level of compound 4 (abbreviated as “3F” in these figures), and estradiol groups. […] Approximately 800 cells were assessed for each animal within a group, then averaged to obtain the group mean. […] P values were determined by student T-test.

[9] = test system: estrogen receptor; assay: Screen for agonist or antagonist effects on steroid hormone receptor-mediated gene expression; type: cell-based; settings: cell lines with endogenous genes or stably integrated reporter genes
Experimental: A screen for the agonist or antagonist effects of a set of commercially available flavonoids was done by assessing their ability to induce or inhibit steroid hormone receptor-mediated gene expression. Cell lines were used in which the activity of endogenous genes or stably integrated reporter genes provided a facile method to quantify the effect of the flavonoids. The compound library was tested for their effects on gene expression mediated by the estrogen receptor, androgen receptor, progesterone receptor, and glucocorticoid receptor. […] Compound 2 differs from compound 1 by the addition of a hydroxyl group at carbon 3 of the flavone scaffold. We reasoned that other substitutions at position 3 could have estrogenic activity. Two novel compounds were tested: compound 3 (6-hydroxy-2-(4-hydroxyphenyl)-3-methyl-4H-chromen-4-one) and compound 4 (3-fluoro-6-hydroxy-2-(4-hydroxyphenyl)-4H-chromen-4-one) of Table 1, which have a methyl or fluoro moiety, respectively, at position 3.

Compound: Cc1c(-c2ccc(O)cc2)oc2ccc(O)cc2c1=O [compound 3, 6-hydroxy-2-(4-hydroxyphenyl)-3-methyl-4H-chromen-4-one]
- potency compared to compound 2 (fold less potent) ([5]; T47D ERE-luciferase, 20 hours): about 10 fold
- estrogenic activity (luciferase) in words ([5]; T47D ERE-luciferase, 20 hours): at very high doses appears to have superagonist activity

Compound: C[C@]12CC[C@@H]3c4ccc(O)cc4CC[C@H]3[C@@H]1CC[C@@H]2O [estradiol]
- endometrium, myometrium, and urothelium thickness vs control [7]: None of the pairs exhibited a significant difference
- mean percent Ki67 positive uterine cells vs control [8]: None of the pairs exhibited a significant difference

Compound: O=c1cc(-c2ccc(O)cc2)oc2ccc(O)cc12 [compound 1, 6-hydroxy-2-(4-hydroxyphenyl)-4H-chromen-4-one]
- estrogen agonist effect on estrogen receptor-mediated gene expression [9]: estrogen agonist

More lines, main results first:

- EC50 [5]: 0.024 µM
- concentration at 1 day [6]: < 0.33 ng/mL
Compound: O=c1c(F)c(-c2ccc(O)cc2)oc2ccc(O)cc12 [compound 4, 3-fluoro-6-hydroxy-2-(4-hydroxyphenyl)-4H-chromen-4-one]
- percent Ki67 positive cells in vaginal basal and parabasal layers vs control [1]: no statistical difference between the groups
- effect on vaginal epithelium structure, in words ([2]; 0.2 and 1.0 mg/suppository intravaginally daily for 14 days): dose dependent; also recorded: can restore the structure of the degenerate vaginal epithelium to the same level as estradiol
- mean epithelial depth, p value vs corresponding control ([2]; low compound 4, 0.2 mg/suppository intravaginally daily for 14 days, both regions, borderline significant): ≈ 0.05
- effect on animal behavior, appearance, weight, necropsy findings [3]: does not affect animal behavior, appearance, weight, or necropsy findings
- vaginal production of mucins, in words [4]: stimulates the vaginal production of mucins; also recorded: lower dose of compound 4 treatment results in somewhat higher mucin production than higher dose
- estrogenic activity (luciferase) in words ([5]; T47D ERE-luciferase, 20 hours): robust estrogenic activity and superior potency compared to compound 2

- EC50 [5]: 0.044 µM
Compound: O=c1c(O)c(-c2ccc(O)cc2)oc2ccc(O)cc12 [compound 2, 3,6-dihydroxy-2-(4-hydroxyphenyl)-4H-chromen-4-one]
- estrogen agonist effect on estrogen receptor-mediated gene expression [9]: superior potency as an estrogen receptor agonist compared to compound 1
